Results reported in ChEMBL document CHEMBL5291721, “A preclinical secondary pharmacology resource illuminates target-adverse drug reaction associations of marketed drugs” (Nat Commun, 2023).

Tests used:
[1] = biological target: Gamma-aminobutyric acid receptor subunit alpha-1/alpha-2/beta-2/gamma-2 (Homo sapiens, UniProt P14867+P18507+P47869+P47870); format: functional, cell-based
Histamine H1 receptor [2] = biological target: T1, Histamine H1 receptor (Homo sapiens, UniProt P35367); format: functional, cell-based
Histamine H1 receptor [3] = biological target: T1, Histamine H1 receptor; format: functional, cell-based; remark: listed apart in the source
D(1A) dopamine receptor = D(1A) dopamine receptor (Homo sapiens, UniProt P21728)
[4] = biological target: Hydroxycarboxylic acid receptor 2 (Homo sapiens, UniProt Q8TDS4)
[5] = biological target: T2, Alpha-1A adrenergic receptor (Homo sapiens, UniProt P35348)
T2 sequence (P35348 whole entry): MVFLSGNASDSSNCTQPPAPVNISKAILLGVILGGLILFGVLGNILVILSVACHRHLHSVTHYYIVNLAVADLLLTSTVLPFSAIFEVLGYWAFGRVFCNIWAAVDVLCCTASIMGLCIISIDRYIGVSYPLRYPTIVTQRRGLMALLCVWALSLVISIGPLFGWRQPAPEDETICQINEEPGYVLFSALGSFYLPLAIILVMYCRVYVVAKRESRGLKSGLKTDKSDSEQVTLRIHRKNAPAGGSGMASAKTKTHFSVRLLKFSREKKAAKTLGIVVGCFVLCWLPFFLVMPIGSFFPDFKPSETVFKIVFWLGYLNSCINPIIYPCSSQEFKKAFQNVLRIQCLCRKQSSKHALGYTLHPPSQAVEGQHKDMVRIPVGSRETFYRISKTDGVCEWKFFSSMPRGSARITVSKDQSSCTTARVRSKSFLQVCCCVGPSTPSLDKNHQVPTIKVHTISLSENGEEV

Estrogen receptor beta = Estrogen receptor beta (Homo sapiens, UniProt Q92731)
Estrogen receptor beta, sequence (Q92731 whole entry): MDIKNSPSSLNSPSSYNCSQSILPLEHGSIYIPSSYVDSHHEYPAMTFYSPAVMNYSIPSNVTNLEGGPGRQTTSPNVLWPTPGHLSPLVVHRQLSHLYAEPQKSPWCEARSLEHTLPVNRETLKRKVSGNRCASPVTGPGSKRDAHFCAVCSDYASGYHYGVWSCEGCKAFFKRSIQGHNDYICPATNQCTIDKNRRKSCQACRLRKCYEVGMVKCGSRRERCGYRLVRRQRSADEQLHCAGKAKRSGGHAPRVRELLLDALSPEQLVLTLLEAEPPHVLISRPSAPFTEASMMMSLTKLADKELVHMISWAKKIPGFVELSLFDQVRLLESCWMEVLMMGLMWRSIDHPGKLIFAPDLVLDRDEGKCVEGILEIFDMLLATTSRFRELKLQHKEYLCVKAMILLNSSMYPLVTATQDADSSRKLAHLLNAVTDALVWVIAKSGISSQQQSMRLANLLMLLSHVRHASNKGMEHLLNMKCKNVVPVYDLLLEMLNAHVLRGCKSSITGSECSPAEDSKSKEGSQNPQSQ

D(4) dopamine receptor = biological target: T3, D(4) dopamine receptor (Homo sapiens, UniProt P21917)
T3 sequence (P21917 whole entry): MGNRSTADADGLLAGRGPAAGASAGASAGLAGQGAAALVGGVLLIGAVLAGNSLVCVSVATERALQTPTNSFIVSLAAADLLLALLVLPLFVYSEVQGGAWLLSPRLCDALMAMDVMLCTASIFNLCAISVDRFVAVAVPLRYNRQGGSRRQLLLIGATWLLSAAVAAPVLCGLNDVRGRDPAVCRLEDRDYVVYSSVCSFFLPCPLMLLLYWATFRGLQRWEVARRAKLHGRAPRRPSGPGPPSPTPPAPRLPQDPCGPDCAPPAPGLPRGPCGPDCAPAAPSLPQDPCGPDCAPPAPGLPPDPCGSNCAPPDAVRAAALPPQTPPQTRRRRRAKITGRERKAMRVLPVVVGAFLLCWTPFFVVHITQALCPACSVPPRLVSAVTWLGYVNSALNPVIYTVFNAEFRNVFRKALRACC

Substance-P receptor = Substance-P receptor (Homo sapiens, UniProt P25103)
[6] = biological target: Rod cGMP-specific 3',5'-cyclic phosphodiesterase subunit alpha (Homo sapiens, UniProt P16499); format: functional
Cannabinoid receptor 1 = Cannabinoid receptor 1 (Homo sapiens, UniProt P21554); format: functional
Cannabinoid receptor 1, sequence (P21554 whole entry): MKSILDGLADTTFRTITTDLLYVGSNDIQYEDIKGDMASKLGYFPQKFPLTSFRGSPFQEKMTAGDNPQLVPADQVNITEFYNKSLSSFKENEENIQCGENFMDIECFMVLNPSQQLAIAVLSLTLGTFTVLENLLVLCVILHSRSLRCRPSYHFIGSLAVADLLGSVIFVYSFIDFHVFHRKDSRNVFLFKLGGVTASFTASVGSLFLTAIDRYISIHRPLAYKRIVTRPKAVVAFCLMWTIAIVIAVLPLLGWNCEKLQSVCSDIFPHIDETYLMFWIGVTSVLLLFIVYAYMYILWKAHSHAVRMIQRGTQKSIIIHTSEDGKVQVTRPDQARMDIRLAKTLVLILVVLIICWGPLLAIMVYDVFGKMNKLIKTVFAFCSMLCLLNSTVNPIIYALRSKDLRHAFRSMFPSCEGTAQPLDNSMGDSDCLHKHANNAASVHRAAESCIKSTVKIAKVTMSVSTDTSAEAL

D(1B) dopamine receptor = D(1B) dopamine receptor (Homo sapiens, UniProt P21918)
[7] = biological target: T4, Muscarinic acetylcholine receptor M4 (Homo sapiens, UniProt P08173)
T4 sequence (P08173 whole entry): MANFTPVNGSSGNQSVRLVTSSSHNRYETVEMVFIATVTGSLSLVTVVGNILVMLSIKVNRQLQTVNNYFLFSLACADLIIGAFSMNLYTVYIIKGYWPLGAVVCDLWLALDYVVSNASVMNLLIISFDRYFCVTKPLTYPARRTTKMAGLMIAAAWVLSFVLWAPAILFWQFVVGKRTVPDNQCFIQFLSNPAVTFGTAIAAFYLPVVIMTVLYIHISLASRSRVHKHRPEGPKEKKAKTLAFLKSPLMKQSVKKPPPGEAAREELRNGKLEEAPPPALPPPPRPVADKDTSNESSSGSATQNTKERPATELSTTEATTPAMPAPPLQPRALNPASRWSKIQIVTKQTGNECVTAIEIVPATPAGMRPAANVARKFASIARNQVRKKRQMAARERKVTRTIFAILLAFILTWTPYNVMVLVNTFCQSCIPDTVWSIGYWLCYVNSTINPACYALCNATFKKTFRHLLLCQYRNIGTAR

[8] = biological target: 5-hydroxytryptamine receptor 5A (Homo sapiens, UniProt P47898)
[9] = biological target: 5-hydroxytryptamine receptor 6 (Homo sapiens, UniProt P50406)
[10] = biological target: 5-hydroxytryptamine receptor 7 (Homo sapiens, UniProt P34969)
[11] = biological target: T5, Peroxisome proliferator-activated receptor gamma (Homo sapiens, UniProt P37231); format: functional
T5 sequence (P37231 whole entry): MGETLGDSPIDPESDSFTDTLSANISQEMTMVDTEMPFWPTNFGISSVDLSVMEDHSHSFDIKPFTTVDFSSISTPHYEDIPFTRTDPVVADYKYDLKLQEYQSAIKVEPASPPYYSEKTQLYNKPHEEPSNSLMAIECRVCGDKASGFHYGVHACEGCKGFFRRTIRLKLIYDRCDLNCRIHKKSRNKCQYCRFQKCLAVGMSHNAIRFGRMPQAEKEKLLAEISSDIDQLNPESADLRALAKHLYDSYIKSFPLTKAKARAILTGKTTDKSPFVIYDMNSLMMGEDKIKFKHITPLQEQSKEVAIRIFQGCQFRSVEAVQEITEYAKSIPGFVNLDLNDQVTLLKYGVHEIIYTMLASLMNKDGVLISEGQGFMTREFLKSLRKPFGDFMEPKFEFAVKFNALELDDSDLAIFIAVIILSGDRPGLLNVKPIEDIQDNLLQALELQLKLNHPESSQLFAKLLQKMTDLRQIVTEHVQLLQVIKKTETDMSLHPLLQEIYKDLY

[12] = biological target: T5, Peroxisome proliferator-activated receptor gamma; format: functional; remark: listed apart in the source
[13] = biological target: Sodium channel protein type 5 subunit alpha (Homo sapiens, UniProt Q14524); format: functional, cell-based
Sodium channel protein type 5 subunit alpha, sequence (Q14524 whole entry): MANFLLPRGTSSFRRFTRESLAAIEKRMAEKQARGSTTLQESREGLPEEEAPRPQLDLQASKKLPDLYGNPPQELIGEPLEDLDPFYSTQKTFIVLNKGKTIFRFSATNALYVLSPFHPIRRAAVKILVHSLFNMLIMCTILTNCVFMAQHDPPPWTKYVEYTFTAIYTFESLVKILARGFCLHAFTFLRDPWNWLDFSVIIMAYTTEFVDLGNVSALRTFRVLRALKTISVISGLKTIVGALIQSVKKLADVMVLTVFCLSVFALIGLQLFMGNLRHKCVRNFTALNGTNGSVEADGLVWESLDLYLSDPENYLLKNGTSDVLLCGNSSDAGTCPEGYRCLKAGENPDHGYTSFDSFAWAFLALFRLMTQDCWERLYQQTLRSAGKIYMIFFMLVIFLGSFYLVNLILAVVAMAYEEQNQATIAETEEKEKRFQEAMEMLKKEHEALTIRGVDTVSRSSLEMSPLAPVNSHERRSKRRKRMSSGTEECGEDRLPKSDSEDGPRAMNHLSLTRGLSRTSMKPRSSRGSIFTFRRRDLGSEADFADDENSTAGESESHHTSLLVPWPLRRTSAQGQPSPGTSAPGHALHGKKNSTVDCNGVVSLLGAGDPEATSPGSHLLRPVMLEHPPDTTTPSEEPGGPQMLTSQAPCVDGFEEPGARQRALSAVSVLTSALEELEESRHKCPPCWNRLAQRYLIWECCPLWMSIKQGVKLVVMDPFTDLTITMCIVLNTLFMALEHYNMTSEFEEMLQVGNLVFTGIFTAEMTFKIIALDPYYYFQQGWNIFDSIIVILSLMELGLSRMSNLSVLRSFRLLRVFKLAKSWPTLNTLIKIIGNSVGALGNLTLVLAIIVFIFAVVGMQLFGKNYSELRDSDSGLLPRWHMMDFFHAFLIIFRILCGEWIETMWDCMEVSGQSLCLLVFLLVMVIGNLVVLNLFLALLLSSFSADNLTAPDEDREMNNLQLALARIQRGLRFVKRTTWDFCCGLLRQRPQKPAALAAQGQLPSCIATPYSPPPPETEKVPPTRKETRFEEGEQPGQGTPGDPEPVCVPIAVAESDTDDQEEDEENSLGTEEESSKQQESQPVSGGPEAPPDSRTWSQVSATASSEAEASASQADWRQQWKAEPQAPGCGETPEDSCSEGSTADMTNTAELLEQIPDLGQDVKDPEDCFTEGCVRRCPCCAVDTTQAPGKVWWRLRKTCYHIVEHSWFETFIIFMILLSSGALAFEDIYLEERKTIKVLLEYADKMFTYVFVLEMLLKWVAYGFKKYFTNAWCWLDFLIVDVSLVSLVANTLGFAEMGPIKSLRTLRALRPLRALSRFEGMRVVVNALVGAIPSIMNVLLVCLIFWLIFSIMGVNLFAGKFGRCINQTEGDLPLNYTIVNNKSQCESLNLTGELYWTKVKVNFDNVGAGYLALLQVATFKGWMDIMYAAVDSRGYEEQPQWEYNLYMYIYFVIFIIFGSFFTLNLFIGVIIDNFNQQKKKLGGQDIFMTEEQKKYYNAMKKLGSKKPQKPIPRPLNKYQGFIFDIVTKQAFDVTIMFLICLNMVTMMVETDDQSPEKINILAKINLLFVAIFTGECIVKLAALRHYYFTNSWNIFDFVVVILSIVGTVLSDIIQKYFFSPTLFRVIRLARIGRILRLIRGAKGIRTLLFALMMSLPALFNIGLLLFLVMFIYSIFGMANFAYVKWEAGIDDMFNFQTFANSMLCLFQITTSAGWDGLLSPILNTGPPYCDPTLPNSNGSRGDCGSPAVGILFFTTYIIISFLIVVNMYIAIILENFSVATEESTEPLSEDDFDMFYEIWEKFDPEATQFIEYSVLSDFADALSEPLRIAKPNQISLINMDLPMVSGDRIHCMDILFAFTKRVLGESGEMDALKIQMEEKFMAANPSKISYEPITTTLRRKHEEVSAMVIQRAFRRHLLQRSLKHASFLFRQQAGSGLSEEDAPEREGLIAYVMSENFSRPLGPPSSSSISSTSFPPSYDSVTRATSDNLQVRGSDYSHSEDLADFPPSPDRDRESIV

[14] = biological target: Voltage-dependent L-type calcium channel subunit alpha-1C (Homo sapiens, UniProt Q13936); format: functional, cell-based
Also: assay procedure not described here.

Gamma-aminobutyric acid receptor subunit alpha-1/alpha-2/beta-2/gamma-2, sequence (P14867 whole entry): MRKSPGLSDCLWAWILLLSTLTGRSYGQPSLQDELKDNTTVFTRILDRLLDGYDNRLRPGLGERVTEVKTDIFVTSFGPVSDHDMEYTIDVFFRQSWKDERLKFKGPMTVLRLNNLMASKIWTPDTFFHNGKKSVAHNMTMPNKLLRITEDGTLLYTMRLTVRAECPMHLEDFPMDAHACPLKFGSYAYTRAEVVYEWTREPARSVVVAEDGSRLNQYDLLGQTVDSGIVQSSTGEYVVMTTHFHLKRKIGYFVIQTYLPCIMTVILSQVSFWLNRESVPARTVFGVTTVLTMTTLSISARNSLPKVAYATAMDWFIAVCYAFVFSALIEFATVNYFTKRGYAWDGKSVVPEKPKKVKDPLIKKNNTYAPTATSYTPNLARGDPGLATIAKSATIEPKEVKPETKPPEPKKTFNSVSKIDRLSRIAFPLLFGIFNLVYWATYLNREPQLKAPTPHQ
Gamma-aminobutyric acid receptor subunit alpha-1/alpha-2/beta-2/gamma-2, sequence (P47870 whole entry): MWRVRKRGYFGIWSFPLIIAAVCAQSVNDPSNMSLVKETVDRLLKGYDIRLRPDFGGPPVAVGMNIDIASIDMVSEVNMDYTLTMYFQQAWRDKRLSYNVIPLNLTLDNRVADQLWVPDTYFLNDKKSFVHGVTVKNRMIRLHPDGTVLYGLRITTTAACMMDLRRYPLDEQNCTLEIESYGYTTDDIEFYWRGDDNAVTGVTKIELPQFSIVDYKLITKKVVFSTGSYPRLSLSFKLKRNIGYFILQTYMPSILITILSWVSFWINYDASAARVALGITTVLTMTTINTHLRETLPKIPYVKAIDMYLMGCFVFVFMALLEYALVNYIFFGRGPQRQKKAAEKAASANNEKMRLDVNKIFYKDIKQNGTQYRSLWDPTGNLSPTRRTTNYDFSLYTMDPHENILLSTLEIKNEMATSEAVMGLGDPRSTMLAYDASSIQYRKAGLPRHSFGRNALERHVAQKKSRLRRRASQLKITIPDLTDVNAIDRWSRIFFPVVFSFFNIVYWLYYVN
Gamma-aminobutyric acid receptor subunit alpha-1/alpha-2/beta-2/gamma-2, sequence (P18507 whole entry): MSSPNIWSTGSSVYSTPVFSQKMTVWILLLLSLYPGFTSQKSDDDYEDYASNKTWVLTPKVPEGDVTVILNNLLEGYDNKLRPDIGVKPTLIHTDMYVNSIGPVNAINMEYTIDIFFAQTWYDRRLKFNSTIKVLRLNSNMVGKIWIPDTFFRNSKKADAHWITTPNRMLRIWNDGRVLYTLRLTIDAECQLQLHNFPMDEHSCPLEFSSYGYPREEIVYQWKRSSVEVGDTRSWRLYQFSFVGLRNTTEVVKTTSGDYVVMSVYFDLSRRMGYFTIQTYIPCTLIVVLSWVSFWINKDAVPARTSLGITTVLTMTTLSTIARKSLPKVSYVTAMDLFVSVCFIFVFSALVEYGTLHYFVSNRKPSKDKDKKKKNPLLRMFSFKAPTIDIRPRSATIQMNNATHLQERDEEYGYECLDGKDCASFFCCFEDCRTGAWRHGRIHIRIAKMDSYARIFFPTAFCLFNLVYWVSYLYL
Gamma-aminobutyric acid receptor subunit alpha-1/alpha-2/beta-2/gamma-2, sequence (P47869 whole entry): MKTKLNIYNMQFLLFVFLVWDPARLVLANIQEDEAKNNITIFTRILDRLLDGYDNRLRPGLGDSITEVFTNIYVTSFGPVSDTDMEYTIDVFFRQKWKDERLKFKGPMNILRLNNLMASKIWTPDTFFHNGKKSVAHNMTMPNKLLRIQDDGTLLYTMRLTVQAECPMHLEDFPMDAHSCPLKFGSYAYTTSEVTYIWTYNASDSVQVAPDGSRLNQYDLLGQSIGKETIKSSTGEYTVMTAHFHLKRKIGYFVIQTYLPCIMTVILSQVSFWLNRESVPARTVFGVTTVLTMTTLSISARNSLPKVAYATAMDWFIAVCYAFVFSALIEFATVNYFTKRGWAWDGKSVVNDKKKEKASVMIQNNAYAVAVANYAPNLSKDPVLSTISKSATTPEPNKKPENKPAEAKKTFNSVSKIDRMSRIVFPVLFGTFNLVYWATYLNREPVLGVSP

Compound	AC50 [1] [µM]	AC50 (Histamine H1 receptor [2]) [µM]	AC50 (Histamine H1 receptor [3]) [µM]	AC50 (D(1A) dopamine receptor) [µM]	AC50 [5] [µM]	AC50 (Estrogen receptor beta) [µM]	AC50 (D(4) dopamine receptor) [µM]	AC50 (Substance-P receptor) [µM]	AC50 [11] [µM]	AC50 [12] [µM]	other results
C=C1CC[C@@]2(O)[C@H]3Cc4ccc(O)c5c4[C@@]2(CCN3CC2CC2)[C@H]1O5	> 30	> 30	> 30	–	–	–	–	–	–	–	–
Nc1ncnc2c1ncn2[C@@H]1O[C@H](COP(=O)(O)O)[C@@H](O)[C@H]1O [ADENOSINE PHOSPHATE]	> 30	> 30	> 30	–	–	–	–	–	–	–	–
COc1ccc2cccc(CCNC(C)=O)c2c1 [AGOMELATINE]	–	–	–	> 10	> 10	> 30	> 10	> 10	–	–	AC50 [4]: > 10 µM
CN1CCc2cccc3c2[C@H]1Cc1ccc(O)c(O)c1-3 [APOMORPHINE]	–	–	–	–	–	> 30	–	–	–	–	–
NC(CO)C(=O)NNCc1ccc(O)c(O)c1O (stereo unspecified) [BENSERAZIDE]	–	> 30	> 30	> 10	–	–	–	–	–	–	–
CN(C)C(=O)OC1N=C(c2ccccc2)c2cc(Cl)ccc2N(C)C1=O (stereo unspecified) [CAMAZEPAM]	–	–	–	> 10	> 10	> 30	> 10	> 10	–	–	AC50 [6]: > 10 µM; AC50 (Cannabinoid receptor 1): > 10 µM; AC50 (D(1B) dopamine receptor): > 10 µM; AC50 [7]: > 10 µM; AC50 [8]: > 10 µM; AC50 [9]: > 10 µM; AC50 [10]: > 10 µM
CCCCCOC(=O)Nc1nc(=O)n([C@@H]2O[C@H](C)[C@@H](O)[C@H]2O)cc1F [CAPECITABINE]	> 30	–	–	–	–	–	–	–	> 30	> 30	–
CC(C)(Oc1ccc(C2CC2(Cl)Cl)cc1)C(=O)O (stereo unspecified) [CIPROFIBRATE]	–	–	–	–	–	–	–	–	> 30	> 30	–
[H]/N=C(/N)c1ccc(NCc2nc3cc(C(=O)N(CCC(=O)O)c4ccccn4)ccc3n2C)cc1 [DABIGATRAN]	> 30	–	–	–	–	–	–	–	> 30	> 30	AC50 [13]: > 30 µM
CCCCOc1cc(C(=O)NCCN(CC)CC)c2ccccc2n1 [DIBUCAINE]	–	–	–	–	–	–	–	–	–	–	AC50 [14]: 22 µM; AC50 [13]: 1.8 µM
CN[C@@H](C)[C@H](O)c1ccccc1 [EPHEDRINE]	–	–	–	> 10	> 10	> 30	> 10	> 10	–	–	AC50 [4]: > 10 µM; AC50 [13]: > 30 µM
CCNC(C)Cc1cccc(C(F)(F)F)c1 (stereo unspecified) [FENFLURAMINE]	–	–	–	–	–	–	–	> 10	–	–	–
O=C1CN=C(c2ccccc2)c2cc(Cl)ccc2N1CC(F)(F)F [HALAZEPAM]	> 30	> 30	> 30	–	–	–	–	–	> 30	> 30	–
CCCCCN(C)CCC(O)(P(=O)(O)O)P(=O)(O)O [IBANDRONIC ACID]	–	–	–	> 10	> 10	> 30	> 10	> 10	–	–	AC50 (Cannabinoid receptor 1): > 10 µM; AC50 [9]: > 10 µM; AC50 [10]: > 10 µM
COC(=O)C1=C(C)NC(C)=C(C(=O)OC(C)C)C1c1cccc2nonc12 (stereo unspecified) [ISRADIPINE]	–	–	–	–	–	–	–	–	–	–	AC50 [13]: 2.98 µM
CC/C=C\C/C=C\C/C=C\CCCCCCCC(=O)O [LINOLENIC ACID]	> 30	> 30	> 30	–	–	–	–	–	–	–	–
Cc1cccc(C)c1NC(=O)C1CCCCN1C (stereo unspecified) [MEPIVACAINE]	–	–	–	–	–	–	–	–	> 30	> 30	–
C[C@H]1C[C@@H]2[C@H]([C@@H](O)C[C@@]3(C)[C@H]2CC[C@]3(O)C(=O)COC(=O)CCC(=O)O)[C@@]2(C)C=CC(=O)C=C12 [METHYLPREDNISOLONE HEMISUCCINATE]	> 30	> 30	> 30	–	–	–	–	–	> 30	> 30	–
Cc1cc(-c2ccccc2)nnc1NCCN1CCOCC1 [MINAPRINE]	–	–	–	> 10	> 10	> 30	> 10	> 10	–	–	AC50 [4]: > 10 µM
CCCCC(C)(O)C/C=C/[C@H]1[C@H](O)CC(=O)[C@@H]1CCCCCCC(=O)OC (stereo partly specified) [MISOPROSTOL]	> 30	> 30	> 30	–	–	–	–	–	–	–	–
CCCCCCC(C)(C)c1cc(O)c2c(c1)OC(C)(C)C1CCC(=O)CC21 (stereo unspecified) [NABILONE]	> 30	> 30	> 30	–	–	–	–	–	> 30	> 30	–
O=C(O)CCCc1ccccc1 [PHENYLBUTANOIC ACID]	–	–	–	–	> 10	> 30	> 10	> 10	–	–	AC50 (Cannabinoid receptor 1): > 10 µM; AC50 [7]: > 10 µM; AC50 [9]: > 10 µM; AC50 [10]: > 10 µM
CC(Cc1ccccc1)NCCC(c1ccccc1)c1ccccc1 (stereo unspecified) [PRENYLAMINE]	–	–	–	–	–	–	–	–	–	–	AC50 [14]: 47 µM; AC50 [13]: 7.1 µM
CCCOc1ccc(C(=O)OCCN(CC)CC)cc1N [PROPARACAINE]	–	–	–	–	–	–	–	–	> 30	> 30	–
Nc1nc2ccc(OC(F)(F)F)cc2s1 [RILUZOLE]	> 30	–	–	–	–	–	–	–	> 30	> 30	AC50 [14]: > 50 µM
O=C1NCCN1CCN1CCC(c2cn(-c3ccc(F)cc3)c3ccc(Cl)cc23)CC1 [SERTINDOLE]	–	–	–	–	–	–	–	–	–	–	AC50 [14]: > 50 µM; AC50 [13]: 21 µM
Cc1c(C(=O)Nc2ccc(N3C[C@@H](C)O[C@@H](C)C3)nc2)cccc1-c1ccc(OC(F)(F)F)cc1 [SONIDEGIB]	–	–	–	> 10	> 10	> 30	> 10	> 10	–	–	–
COc1ccc(C(=O)N2CCN(c3ccc4c(c3)CCC(=O)N4)CC2)cc1OC [VESNARINONE]	> 30	> 30	> 30	–	–	–	–	–	–	–	–
Cc1ccc(-c2nc3ccc(C)cn3c2CC(=O)N(C)C)cc1 [ZOLPIDEM]	–	–	–	> 10	> 10	–	> 10	> 10	–	–	AC50 [6]: > 10 µM; AC50 (Cannabinoid receptor 1): > 10 µM; AC50 (D(1B) dopamine receptor): > 10 µM; AC50 [7]: > 10 µM; AC50 [8]: > 10 µM; AC50 [9]: > 10 µM; AC50 [10]: > 10 µM
CN1CCN(C(=O)OC2c3nccnc3C(=O)N2c2ccc(Cl)cn2)CC1 (stereo unspecified) [ZOPICLONE]	–	–	–	> 10	> 10	> 30	> 10	–	> 30	> 30	AC50 (Cannabinoid receptor 1): > 10 µM; AC50 [9]: > 10 µM; AC50 [10]: > 10 µM
